According to patent publication US10770169B2, “Method of providing a treatment to a subject based on a dynamic pathway map” (THE REGENTS OF THE UNIVERSITY OF CALIFORNIA, priority 2010, dated 2020):
Read-outs that look alike come from different tables or passages of the source.

Tested on: panel of 55 breast cancer cell lines
Assay: Cell growth inhibition assay (Cell Titer Glo, 72 h, 9 doses; GI50, TGI, LC50)
Type: cell-based, human
[1] = HCC1395 cell line, censored GI50 values, value is the negative log10 of mol/L
[2] = HCC1419 cell line, censored GI50 values, value is the negative log10 of mol/L
[3] = HCC1806 cell line, censored GI50 values, value is the negative log10 of mol/L
[4] = HCC1954 cell line, censored GI50 values, value is the negative log10 of mol/L
[5] = cell line AU565, value is the negative log10 of mol/L
[6] = cell line BT474, value is the negative log10 of mol/L
[7] = cell line BT483, value is the negative log10 of mol/L
[8] = cell line CAMA1, value is the negative log10 of mol/L
[9] = cell line HCC38, value is the negative log10 of mol/L
[10] = cell line HCC70, value is the negative log10 of mol/L
[11] = cell line HCC1187, value is the negative log10 of mol/L
[12] = cell line HCC1395, value is the negative log10 of mol/L
[13] = cell line HCC1419, value is the negative log10 of mol/L
[14] = cell line HCC1428, value is the negative log10 of mol/L
[15] = cell line HCC1500, value is the negative log10 of mol/L
[16] = cell line HCC1806, value is the negative log10 of mol/L
[17] = cell line HCC1937, value is the negative log10 of mol/L
[18] = cell line HCC1954, value is the negative log10 of mol/L
[19] = cell line HCC2185, value is the negative log10 of mol/L
[20] = cell line HCC3153, value is the negative log10 of mol/L
[21] = cell line LY2, value is the negative log10 of mol/L
[22] = cell line MDAMB134V, value is the negative log10 of mol/L
[23] = cell line MDAMB175V, value is the negative log10 of mol/L
[24] = cell line MDAMB361, value is the negative log10 of mol/L
[25] = cell line MDAMB415, value is the negative log10 of mol/L
[26] = cell line MDAMB453, value is the negative log10 of mol/L
[27] = cell line MDAMB468, value is the negative log10 of mol/L
[28] = cell line SKBR3, value is the negative log10 of mol/L
[29] = cell line SUM52PE, value is the negative log10 of mol/L
[30] = cell line SUM149PT, value is the negative log10 of mol/L
[31] = cell line SUM159PT, value is the negative log10 of mol/L
[32] = cell line SUM185PE, value is the negative log10 of mol/L
[33] = cell line SUM1315MO, value is the negative log10 of mol/L
[34] = cell line T47D, value is the negative log10 of mol/L
[35] = cell line UACC812, value is the negative log10 of mol/L
[36] = cell line ZR75B, value is the negative log10 of mol/L

`CC(=O)Nc1cccc(-n2c(=O)n(C3CC3)c(=O)c3c(Nc4ccc(I)cc4F)n(C)c(=O)c(C)c32)c1.C[S+](C)[O-]` [GSK1120212B] gave a GI50 (600MPE cell line, censored GI50 values, value is the negative log10 of mol/L) of 8.17, a GI50 (BT549 cell line, censored GI50 values, value is the negative log10 of mol/L) of 5.17 and a GI50 (HCC70 cell line, censored GI50 values, value is the negative log10 of mol/L) of 8.18. For the same molecule, the GI50 (HCC202 cell line, censored GI50 values, value is the negative log10 of mol/L) was 10.23, the GI50 [1] was 6.71 and the GI50 [2] was 7.23. For the same molecule, the GI50 [3] was 5.08, the GI50 [4] was 6.53 and the GI50 (MDAMB134VI cell line, censored GI50 values, value is the negative log10 of mol/L) was 7.72. For the same molecule, the GI50 (MDAMB175VII cell line, censored GI50 values, value is the negative log10 of mol/L) was 7.94, the GI50 (MDAMB231 cell line, censored GI50 values, value is the negative log10 of mol/L) was 6.86 and the GI50 (MDAMB415 cell line, censored GI50 values, value is the negative log10 of mol/L) was 6.13. It also gave a GI50 (MDAMB453 cell line, censored GI50 values, value is the negative log10 of mol/L) of 6.61, a GI50 (SUM149PT cell line, censored GI50 values, value is the negative log10 of mol/L) of 7.51 and a GI50 (SUM159PT cell line, censored GI50 values, value is the negative log10 of mol/L) of 7.93. For the same molecule, the GI50 (SUM1315MO2 cell line, censored GI50 values, value is the negative log10 of mol/L) was 7.19, the GI50 (cell line 600MPE, value is the negative log10 of mol/L) was 8.17 and the GI50 [5] was 4.82. For the same molecule, the GI50 [6] was 4.78, the GI50 [7] was 4.78 and the GI50 (cell line BT549, value is the negative log10 of mol/L) was 5.17. It also gave a GI50 [8] of 4.78, a GI50 [9] of 4.78 and a GI50 [10] of 8.18. For the same molecule, the GI50 (cell line HCC202, value is the negative log10 of mol/L) was 10.23, the GI50 [11] was 4.78 and the GI50 [12] was 6.71. It also gave a GI50 [13] of 7.23, a GI50 [14] of 4.78 and a GI50 [15] of 4.78. It also gave a GI50 [16] of 5.08, a GI50 [17] of 4.78 and a GI50 [18] of 6.53. It also gave a GI50 [19] of 4.78, a GI50 [20] of 4.78 and a GI50 [21] of 4.78. It also gave a GI50 (cell line MCF7, value is the negative log10 of mol/L) of 4.78, a GI50 [22] of 7.72 and a GI50 (cell line MDAMB157, value is the negative log10 of mol/L) of 4.78. For the same molecule, the GI50 [23] was 7.94, the GI50 (cell line MDAMB231, value is the negative log10 of mol/L) was 6.86 and the GI50 [24] was 4.78. It also gave a GI50 [25] of 6.13, a GI50 (cell line MDAMB436, value is the negative log10 of mol/L) of 4.81 and a GI50 [26] of 6.61. It also gave a GI50 [27] of 4.85, a GI50 [28] of 4.78 and a GI50 [29] of 5.06. The GI50 [30] was 7.51, the GI50 [31] was 7.93 and the GI50 [32] was 4.78. The GI50 [33] was 7.19, the GI50 [34] was 4.78 and the GI50 [35] was 4.78. The GI50 (cell line UACC893, value is the negative log10 of mol/L) was 4.81, the GI50 [36] was 4.78 and the GI50 (cell line ZR751, value is the negative log10 of mol/L) was 4.78.
Molecule Oxamflatin has a GI50 (AU565 cell line, censored GI50 values, value is the negative log10 of mol/L) of 6.19, a GI50 (BT474 cell line, censored GI50 values, value is the negative log10 of mol/L) of 6.57 and a GI50 (BT483 cell line, censored GI50 values, value is the negative log10 of mol/L) of 6.15. The GI50 (CAMA1 cell line, censored GI50 values, value is the negative log10 of mol/L) was 6.27, the GI50 (HCC1143 cell line, censored GI50 values, value is the negative log10 of mol/L) was 6.28 and the GI50 (HCC1187 cell line, censored GI50 values, value is the negative log10 of mol/L) was 6.19. The GI50 [1] was 5.64, the GI50 [2] was 5.88 and the GI50 (HCC1428 cell line, censored GI50 values, value is the negative log10 of mol/L) was 6.33. The GI50 (HCC1500 cell line, censored GI50 values, value is the negative log10 of mol/L) was 5.98, the GI50 [3] was 6.16 and the GI50 (HCC1937 cell line, censored GI50 values, value is the negative log10 of mol/L) was 5.84. For the same molecule, the GI50 [4] was 5.81, the GI50 [5] was 6.19 and the GI50 [6] was 6.57. It also gave a GI50 [7] of 6.15, a GI50 [8] of 6.27 and a GI50 [9] of 6.77. It also gave a GI50 [10] of 6.35, a GI50 (cell line HCC1143, value is the negative log10 of mol/L) of 6.28 and a GI50 [11] of 6.19. It also gave a GI50 [12] of 5.64, a GI50 [13] of 5.88 and a GI50 [14] of 6.33. It also gave a GI50 [15] of 5.98, a GI50 [16] of 6.16 and a GI50 [17] of 5.84. The GI50 [18] was 5.81, the GI50 [19] was 6.46 and the GI50 [20] was 5.82. For the same molecule, the GI50 [21] was 5.88, the GI50 [22] was 6.18 and the GI50 [23] was 5.41. For the same molecule, the GI50 [24] was 6.15, the GI50 [25] was 6.14 and the GI50 [26] was 6.56. For the same molecule, the GI50 [27] was 5.57, the GI50 [28] was 5.96 and the GI50 [29] was 6.22. For the same molecule, the GI50 [30] was 6.17, the GI50 [31] was 6.50 and the GI50 [32] was 6.51. The GI50 (cell line SUM225CWN, value is the negative log10 of mol/L) was 6.07, the GI50 [33] was 5.64 and the GI50 [34] was 6.06. The GI50 [35] was 5.71 and the GI50 [36] was 6.41.
For `COc1cc2ncnc(Nc3ccc(F)c(Cl)c3)c2cc1OCCCN1CCOCC1` [Iressa], the GI50 (Homo sapiens, 600MPE cell line, censored GI50 values, read-out: GI50 (converted)) was 7.24 µM, the GI50 (Homo sapiens, AU565, AU565 cell line, censored GI50 values, read-out: GI50 (converted)) was 1.07 µM and the GI50 (Homo sapiens, BT-474, BT474 cell line, censored GI50 values, read-out: GI50 (converted)) was 0.724 µM. It also gave a GI50 (Homo sapiens, BT-483, BT483 cell line, censored GI50 values, read-out: GI50 (converted)) of 6.17 µM, a GI50 (Homo sapiens, BT-549, BT549 cell line, censored GI50 values, read-out: GI50 (converted)) of 15.1 µM and a GI50 (Homo sapiens, HCC70, HCC70 cell line, censored GI50 values, read-out: GI50 (converted)) of 17.4 µM. The GI50 (Homo sapiens, HCC1143, HCC1143 cell line, censored GI50 values, read-out: GI50 (converted)) was 11.7 µM, the GI50 (Homo sapiens, HCC1395, HCC1395 cell line, censored GI50 values, read-out: GI50 (converted)) was 7.08 µM and the GI50 (Homo sapiens, HCC1419, HCC1419 cell line, censored GI50 values, read-out: GI50 (converted)) was 2.75 µM. The GI50 (Homo sapiens, HCC1428, HCC1428 cell line, censored GI50 values, read-out: GI50 (converted)) was 10.7 µM, the GI50 (Homo sapiens, HCC1500, HCC1500 cell line, censored GI50 values, read-out: GI50 (converted)) was 8.13 µM and the GI50 (Homo sapiens, HCC1806, HCC1806 cell line, censored GI50 values, read-out: GI50 (converted)) was 4.68 µM. It also gave a GI50 (Homo sapiens, HCC1937, HCC1937 cell line, censored GI50 values, read-out: GI50 (converted)) of 8.32 µM, a GI50 (Homo sapiens, HCC1954, HCC1954 cell line, censored GI50 values, read-out: GI50 (converted)) of 2.04 µM and a GI50 (Homo sapiens, HCC2185 cell line, censored GI50 values, read-out: GI50 (converted)) of 9.33 µM. It also gave a GI50 (Homo sapiens, MDA-MB-157, MDAMB157 cell line, censored GI50 values, read-out: GI50 (converted)) of 15.1 µM, a GI50 (Homo sapiens, MDA-MB-175-VII, MDAMB175VII cell line, censored GI50 values, read-out: GI50 (converted)) of 0.209 µM and a GI50 (Homo sapiens, MDA-MB-361, MDAMB361 cell line, censored GI50 values, read-out: GI50 (converted)) of 6.46 µM. It also gave a GI50 (Homo sapiens, MDA-MB-415, MDAMB415 cell line, censored GI50 values, read-out: GI50 (converted)) of 7.41 µM, a GI50 (Homo sapiens, MDA-MB-453, MDAMB453 cell line, censored GI50 values, read-out: GI50 (converted)) of 7.41 µM and a GI50 (Homo sapiens, SK-BR-3, SKBR3 cell line, censored GI50 values, read-out: GI50 (converted)) of 2.82 µM. It also gave a GI50 (Homo sapiens, SUM52PE, SUM52PE cell line, censored GI50 values, read-out: GI50 (converted)) of 7.94 µM, a GI50 (Homo sapiens, SUM149PT, SUM149PT cell line, censored GI50 values, read-out: GI50 (converted)) of 2.88 µM and a GI50 (Homo sapiens, SUM185PE, SUM185PE cell line, censored GI50 values, read-out: GI50 (converted)) of 20.9 µM. For the same molecule, the GI50 (Homo sapiens, SUM1315MO2, SUM1315MO2 cell line, censored GI50 values, read-out: GI50 (converted)) was 2.95 µM, the GI50 (Homo sapiens, SUM-159-PT, SUM159PT cell line, censored GI50 values, read-out: GI50 (converted)) was 8.51 µM and the GI50 (Homo sapiens, T47D, T47D cell line, censored GI50 values, read-out: GI50 (converted)) was 15.8 µM. The GI50 (Homo sapiens, UACC-893, UACC893 cell line, censored GI50 values, read-out: GI50 (converted)) was 1.15 µM.
